Patent publication US4477464A, “Hetero-benzazepine derivatives and their pharmaceutical use” (Ciba-Geigy Corporation, priority 1983, dated 1984)
Counter-ions that a name gives are not always drawn.

How the values were obtained:
[1] = molecular target: T1, angiotensin-converting enzyme (Oryctolagus cuniculus, UniProt P12822); test: in vitro inhibition of angiotensin-converting enzyme (hippuryl-histidyl-leucine substrate); assay type: biochemical, rabbit; conditions: angiotensin-converting enzyme preparation from lungs of adult male rabbits, 37° C., 30 minutes
T1 construct: angiotensin-converting enzyme preparation (from lungs of adult male rabbits); from tissue; host or cells: lungs of adult male rabbits
T1 sequence (P12822 34-1310): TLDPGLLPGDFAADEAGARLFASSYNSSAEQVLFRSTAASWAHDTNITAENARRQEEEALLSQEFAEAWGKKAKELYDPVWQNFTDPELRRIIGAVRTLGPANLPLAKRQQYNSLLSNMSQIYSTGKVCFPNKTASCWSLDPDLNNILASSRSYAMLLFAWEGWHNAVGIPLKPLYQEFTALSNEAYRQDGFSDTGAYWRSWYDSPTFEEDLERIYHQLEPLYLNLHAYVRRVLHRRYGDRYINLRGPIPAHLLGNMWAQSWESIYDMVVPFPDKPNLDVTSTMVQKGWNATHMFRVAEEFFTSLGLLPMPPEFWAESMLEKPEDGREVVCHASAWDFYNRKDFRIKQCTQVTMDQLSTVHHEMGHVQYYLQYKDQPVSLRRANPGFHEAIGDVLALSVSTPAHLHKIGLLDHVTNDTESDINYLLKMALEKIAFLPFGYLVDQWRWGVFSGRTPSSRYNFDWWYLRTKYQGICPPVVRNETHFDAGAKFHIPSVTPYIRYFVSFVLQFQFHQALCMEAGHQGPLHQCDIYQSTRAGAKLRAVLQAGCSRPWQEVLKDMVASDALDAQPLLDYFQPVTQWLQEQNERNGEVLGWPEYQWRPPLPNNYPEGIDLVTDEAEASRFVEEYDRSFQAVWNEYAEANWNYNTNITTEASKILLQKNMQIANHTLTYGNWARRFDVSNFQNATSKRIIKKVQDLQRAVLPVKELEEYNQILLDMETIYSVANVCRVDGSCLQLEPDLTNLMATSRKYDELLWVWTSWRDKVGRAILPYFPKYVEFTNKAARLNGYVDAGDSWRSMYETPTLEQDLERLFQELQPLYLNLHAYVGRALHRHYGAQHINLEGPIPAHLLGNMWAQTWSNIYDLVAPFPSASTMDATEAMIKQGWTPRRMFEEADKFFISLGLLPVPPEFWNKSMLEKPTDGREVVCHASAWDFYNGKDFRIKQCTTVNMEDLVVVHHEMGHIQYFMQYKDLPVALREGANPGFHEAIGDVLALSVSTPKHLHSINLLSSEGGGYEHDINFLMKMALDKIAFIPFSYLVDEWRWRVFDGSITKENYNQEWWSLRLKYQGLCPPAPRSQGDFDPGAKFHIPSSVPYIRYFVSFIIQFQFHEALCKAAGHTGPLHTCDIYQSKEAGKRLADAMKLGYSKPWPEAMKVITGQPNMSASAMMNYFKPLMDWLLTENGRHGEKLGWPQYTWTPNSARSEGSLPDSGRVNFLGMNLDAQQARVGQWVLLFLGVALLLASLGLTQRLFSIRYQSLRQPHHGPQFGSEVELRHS
Procedure: Biophys. Acta 293, 451 (1973). According to this method, said compounds are dissolved at about 1 mM concentration in phosphate buffer. To 100 microliters of solutions of the test compound in phosphate buffer, diluted to the desired concentration, are added 100 microliters of 5 mM hippuryl-histidyl-leucine in phosphate buffer, followed by 50 microliters of the angiotensin-converting enzyme preparation (from lungs of adult male rabbits) in Tris buffer, containing potassium and magnesium chloride, as well as sucrose. Said solutions are incubated at 37° C. for 30 minutes and combined with 0.75 ml of 0.6N aqueous sodium hydroxide to stop further reaction. Then 100 microliters of a 0.2% solution of o-phthalaldehyde in methanol are added at room temperature, and 10 minutes later 100 microliters of 6N hydrochloric acid. These samples are read against water in a spectrophotometer set at 360 nm, and the optical densities thereof estimated. They are corrected for the standard curve via a conversion factor expressing nanomoles of histidyl-leucine formed during said 30 minute incubation period. The results are plotted against drug concentration to determine the IC50, i.e., the drug concentration which gives half the activity of the control sample containing no drug.

[2] = tested on: angiotensin-converting enzyme; test: inhibition of Angiotensin I induced pressor response in normotensive rats; assay type: in vivo, rat; conditions: normotensive anesthetized rats, 10 mg/kg p.o., measured 2 to 4 hours after administration
Procedure: Angiotensin I is hydrolyzed by the action of said converting enzyme to the potent pressor substance Angiotensin II. The inhibition of said enzyme prevents the generation of Angiotensin II from I and, therefore, attenuates any pressor response following an Angiotensin I challenge.
The corresponding in vivo test is performed with male, normotensive rats, which are anesthetized with sodium 5-ethyl-5-(1-methylpropyl)-2-thiobarbiturate. A femoral artery and saphenous vein are cannulated respectively for direct blood pressure measurement and the i.v. administration of Angiotensin I and a compound of this invention. After the basal blood pressure is stabilized, pressor responses to 3 challenges of 333 ng/kg angiotensin I i.v., at 5 minute intervals, are obtained. Such pressure responses are usually again obtained at time intervals after i.v. or p.o. administration of the compound to be tested, and compared with the initial responses. Any observed decrease of said pressor response is an indication of Angiotensin I converting enzyme inhibition. Illustrative of this invention, the compound of example 3a inhibits the pressor response following angiotensin I challenge by about 70% at a dose of 10 mg/kg p.o. as measured 2 to 4 hours after administration.

[3] = tested on: spontaneously hypertensive rats; test: antihypertensive effect in spontaneously hypertensive rats, indirect systolic pressure; assay type: in vivo, rat; conditions: 10 mg/kg p.o.
Procedure: The in vivo lowering effect on the blood pressure is recorded, either directly by means of a catheter, placed in the test animal's femoral artery, or indirectly by sphygmomanometry at the rat's tail or a transducer. The blood pressure is recorded in mm Hg prior to and after dosing.
Thus the antihypertensive effects are demonstrable in spontaneously hypertensive rats by indirect measurement of systolic pressure. Conscious rats are placed individually in restraint cages within a gently warmed chamber. A rubber pulse sensor is placed distal to an inflatable occlusive cuff on each rat's tail. The cuff is periodically inflated to occlude the tail artery, and systolic pressure is recorded as the point where the first discernible pulse emerges along the decaying calibrated pressure curve. After obtaining control values of blood pressure and heart rate, test compounds are administered orally once daily for 4 consecutive days. Additional blood pressure measurements are usually made at 2.0, 4.0 and 23.5 hours after each daily dosing, and responses are compared to those of rats dosed with the treatment vehicle.
Illustrative of the invention, the compound of example 3a at a dose of 10 mg/kg p.o. lowers blood pressure by about 35 mm Hg.

| Structure (SMILES) | IC50 [1] | inhibition of pressor response following angiotensin I challenge [2] | lowering of blood pressure [3] |
| --- | --- | --- | --- |
| O=C(O)CN1C(=O)[C@@H](NC(CCc2ccccc2)C(=O)O)CSc2ccccc21 (stereo partly drawn) [Example 2, (3R)-[N-(1-carboxy-3-phenylpropyl)amino]-5-carboxymethyl-2,3-dihydro-1,5-benzothiazepin-4(5H)-one] | ~10 nM | – | – |
| CCOC(=O)[C@H](CCc1ccccc1)N[C@H]1CSc2ccccc2N(CC(=O)O)C1=O [Example 3a, (3R)-{N-[(1S)-carboethoxy-3-phenylpropyl]amino}-5-carboxymethyl-2,3-dihydro-1,5-benzothiazepin-4(5H)-one hydrochloride] | – | about 70% | about 35 mm Hg |
| NCCCCC(N[C@H]1CSc2ccccc2N(CC(=O)O)C1=O)C(=O)O (stereo partly drawn) [Example 14, (3R)-[N-(1-carboxy-5-aminopentyl)amino]-5-carboxymethyl-2,3-dihydro-1,5-benzothiazepin-4(5H)-one dihydrochloride] | ~28 nM | – | – |

Now from value to molecule, other results behind:

| IC50 [1] | Structure (SMILES) | inhibition of pressor response following angiotensin I challenge [2] | lowering of blood pressure [3] |
| --- | --- | --- | --- |
| ~3 nM | O=C(O)CN1C(=O)[C@@H](N[C@@H](CCc2ccccc2)C(=O)O)CSc2ccccc21 [Example 6, (3R)-{N-[(1S)-carboxy-3-phenylpropyl]amino}-5-carboxymethyl-2,3-dihydro-1,5-benzothiazepin-4(5H)-one] | – | – |
| ~6 nM | O=C(O)CN1C(=O)[C@@H](N[C@@H](CCc2ccccc2)C(=O)O)C[S+]([O-])c2ccccc21 (stereo partly drawn) [Example 12, (3R)-{N-[(1S)-carboxy-3-phenylpropyl]amino}-5-carboxymethyl-2,3-dihydro-1-oxo-1,5-benzothiazepin-4(5H)-one] | – | – |
